{"source": "patent US20240000741A1", "about": "“ALL-TRANS RETINOIC ACID ENHANCES RADIOTHERAPY AND OVERCOMES IMMUNE SUPPRESSION FOR CANCER THERAPY” (The University of Chicago, priority 2022, published 2024)", "key": {"[1]": {"test_system": "chemokines and cytokines in tumors", "assay": "Multiplex cytokine/chemokine assay of tumor homogenates", "format": "in vivo, mouse", "description": "Whole tumors were excised at indicated time point post treatment. Tumors were weighed and homogenized in PBS with the presence of protease inhibitor cocktails at a ratio of 1 ml per gram of tissue. 25 μl of supernatants were subjected to a bead-based cytokine and chemokine assay (a mouse inflammation panel and chemokine panel sold under the tradename LEGENDPLEX™ (BioLegend, San Diego, California, United States of America). The assays were analyzed using a LSRII flow cytometer and software sold under the tradename LEGENDPLEX™ (both from BioLegend, San Diego, California, United States of America). IFN-γ was measured using IFN-γ flex CBA set (BD Biosciences, Franklin Lakes, New Jersey, United States of America). TNF-α concentration was measured using ELISA kit from R&D Systems (MTA00B; Minneapolis, Minnesota, United States of America). For nitrite assay, equal weight of tumors were cut into pieces and cultured in DMEM medium for 2 hours. The production of NO in the supernatants was measured indirectly by measuring the concentration of nitrite by using the Griess reagent nitrite measurement kit (Cell Signaling Technology, Danvers, Massachusetts, United States of America; #13547).\nTo determine whether RA has direct cytotoxic and/or radiosensitizing effects on tumor cells, MC38 cells were cultured with RA (0 nM to 2000 nM) after IR (0 Gy to 15 Gy) for three days. […] Since both IR and RA regulate immune responses, studies were conducted to examine how the combination treatment changes the tumor immune environment. Using a multiplex assay, the level of chemokines and cytokines in tumors three days after treatment was determined."}, "[2]": {"test_system": "MC38 syngeneic subcutaneous flank tumor", "assay": "ATRA-sensitized fractionated radiotherapy in MC38 tumor bearing C57BL/6 mice", "format": "in vivo, mouse", "conditions": "3 fractions", "description": "A MC38 syngeneic subcutaneous flank tumor-bearing mouse model was used for the evaluation of in vivo efficacy of ATRA-sensitized radiotherapy. 2×10^6 MC38 cells were injected into the right flank subcutaneous tissues of C57BL/6 background mice. […] After administration, mice were anaesthetized with 2% (v/v) isoflurane and the tumors were irradiated daily with X-ray at a dose of 2 Gy/fraction (225 kVp, 13 mA, 0.3 mm-Cu filter) for a total of 3 fractions. Oil (equal volume/each) was administrated daily with or without irradiation as controls. […] All the mice were sacrificed when the tumors reached about 2,000 mm^3."}, "[3]": {"conditions": "IR+RA compared to other treatments"}, "[4]": {"conditions": "ATRA 400 μg/each oral gavage daily plus X-ray 2 Gy/fraction"}}, "data": [{"smiles": "CC1=C(/C=C/C(C)=C/C=C/C(C)=C/C(=O)O)C(C)(C)CCC1", "note": "[RA, all-trans retinoic acid]", "values": [{"measurement": "IFN-β level in tumors", "setting": "[1]; [3]", "result": "significantly elevated"}, {"measurement": "IFN-γ level in tumors", "setting": "[1]; [3]", "result": "significantly elevated"}, {"measurement": "IL-1 level in tumors", "setting": "[1]; [3]", "result": "significantly elevated"}, {"measurement": "IL-6 level in tumors", "setting": "[1]; [3]", "result": "significantly elevated"}, {"measurement": "increase of GM-CSF in whole tumor homogenates", "setting": "[1]; IR+RA, three days after treatment", "result": "more than 5 fold"}, {"measurement": "CXCL9 level in tumors", "setting": "[1]; radiation and RA treatment", "result": "elevated"}, {"measurement": "CXCL10 level in tumors", "setting": "[1]; radiation and RA treatment", "result": "elevated"}, {"measurement": "MC38 tumor growth", "setting": "[2]; [4]", "result": "greatly regressed the growth of tumors"}, {"measurement": "mice totally free of tumors", "setting": "[2]; [4]", "result": "5 out of 5"}, {"measurement": "body weight", "setting": "[2]; ATRA and X-ray 2 Gy/fraction", "result": "did not lose body weight"}, {"measurement": "time without tumor regrowth", "setting": "[2]; ATRA plus X-ray 2 Gy/fraction", "result": "≥ 30", "unit": "days"}]}]}
